Assay results reported in ChEMBL document CHEMBL2074274, “Transport of quinolone antibacterial drugs by human P-glycoprotein expressed in a kidney epithelial cell line, LLC-PK1” (J Pharmacol Exp Ther, 1997).
Each block holds one compound with its values, some of them ahead of it.

Tests used:
Type in all cases: functional, cell-based
[1] = system: C[C@H]1COc2c(N3CCN(C)CC3)c(F)cc3c(=O)c(C(=O)O)cn1c23; assay: TP_TRANSPORTER: transepithelial transport (basal to apical) in MDR1-expressing LLC-PK1 cells
[2] = biological target: T1, ATP-dependent translocase ABCB1 (Homo sapiens, UniProt P08183); assay: TP_TRANSPORTER: inhibition of Levofloxacin transepithelial transport (basal to apical) (Levofloxacin: 100 uM, PAH: 2500 uM) in MDR1-expressing LLC-PK1 cells; conditions: pig, llc-pk1, 2500 µM
[3] = biological target: T1, ATP-dependent translocase ABCB1; assay: TP_TRANSPORTER: inhibition of DU-6895a transepithelial transport (basal to apical) (DU-6895a: 100 uM, Levofloxacin: 3000 uM) in MDR1-expressing LLC-PK1 cells; conditions: pig, llc-pk1, 3000 µM
[4] = biological target: T1, ATP-dependent translocase ABCB1; assay: TP_TRANSPORTER: inhibition of Daunorubicin transepithelial transport (basal to apical) (Daunorubicin: 0.1 uM, Levofloxacin: 3000 uM) in MDR1-expressing LLC-PK1 cells; conditions: pig, llc-pk1, 3000 µM

T1 sequence (P08183 whole entry): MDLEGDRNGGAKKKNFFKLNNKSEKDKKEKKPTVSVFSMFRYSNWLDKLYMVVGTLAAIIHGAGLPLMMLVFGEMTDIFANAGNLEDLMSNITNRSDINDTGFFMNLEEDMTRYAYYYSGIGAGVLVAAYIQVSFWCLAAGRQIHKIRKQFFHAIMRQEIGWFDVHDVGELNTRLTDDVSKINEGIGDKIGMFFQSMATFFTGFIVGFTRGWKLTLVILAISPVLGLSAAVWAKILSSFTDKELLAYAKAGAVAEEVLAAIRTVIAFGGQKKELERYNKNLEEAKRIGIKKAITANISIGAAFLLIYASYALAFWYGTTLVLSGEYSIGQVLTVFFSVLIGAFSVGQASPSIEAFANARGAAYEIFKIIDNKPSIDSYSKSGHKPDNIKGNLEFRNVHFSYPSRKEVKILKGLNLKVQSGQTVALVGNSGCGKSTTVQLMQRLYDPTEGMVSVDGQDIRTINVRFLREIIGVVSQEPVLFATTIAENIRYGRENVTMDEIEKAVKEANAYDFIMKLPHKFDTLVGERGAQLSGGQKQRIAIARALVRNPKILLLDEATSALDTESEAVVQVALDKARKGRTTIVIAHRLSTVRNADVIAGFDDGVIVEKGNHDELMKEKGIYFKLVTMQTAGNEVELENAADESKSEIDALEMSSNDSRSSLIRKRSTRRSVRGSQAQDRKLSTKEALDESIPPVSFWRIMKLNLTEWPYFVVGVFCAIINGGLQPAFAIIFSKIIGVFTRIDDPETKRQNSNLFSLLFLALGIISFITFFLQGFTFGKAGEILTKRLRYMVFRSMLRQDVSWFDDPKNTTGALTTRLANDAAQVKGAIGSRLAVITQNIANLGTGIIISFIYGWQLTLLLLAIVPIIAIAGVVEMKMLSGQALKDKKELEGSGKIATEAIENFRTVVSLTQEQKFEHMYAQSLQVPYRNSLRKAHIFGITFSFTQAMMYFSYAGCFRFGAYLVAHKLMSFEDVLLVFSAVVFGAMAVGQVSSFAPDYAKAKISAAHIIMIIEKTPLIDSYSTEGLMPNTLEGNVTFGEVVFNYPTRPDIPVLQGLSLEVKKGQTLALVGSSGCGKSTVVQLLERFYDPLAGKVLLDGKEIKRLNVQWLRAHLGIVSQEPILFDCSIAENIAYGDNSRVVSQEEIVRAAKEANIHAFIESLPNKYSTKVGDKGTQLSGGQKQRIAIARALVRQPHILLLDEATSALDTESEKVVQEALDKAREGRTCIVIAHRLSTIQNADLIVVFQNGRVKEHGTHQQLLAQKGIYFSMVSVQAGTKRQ

Compound: ATP-dependent translocase ABCB1 (Homo sapiens)
Km [1]: 3 mM

Activity [2]: is not an inhibitor [-]
Compound: Nc1ccc(C(=O)NCC(=O)O)cc1 [AMINOHIPPURIC ACID]

Activity [3]: inhibitor [+]
Activity [4]: inhibitor [+]
Compound: C[C@H]1COc2c(N3CCN(C)CC3)c(F)cc3c(=O)c(C(=O)O)cn1c23.C[C@H]1COc2c(N3CCN(C)CC3)c(F)cc3c(=O)c(C(=O)O)cn1c23.O [LEVOFLOXACIN]
